According to patent US20250230138A1, “COMPOUNDS HAVING A T-STRUCTURE FORMED BY AT LEAST FOUR CYCLES FOR USE IN THE TREATMENT OF CANCER AND OTHER INDICATIONS” (TheRas, Inc., priority 2022, published 2025):
Where two headings read alike, the source gives them in different places.

Legend:
[1] = target: Cys242 in human PIK3CA (157-299) (Homo sapiens (Human), UniProt P42336); assay: Covalent modification assay using MALDI-TOF MS; format: biochemical; conditions: 4 h reaction time point
Method: Matrix-Assisted Laser Desorption Ionization-Time of Flight Mass Spectrometry (MALDI-TOF MS) analysis of covalent modification of Cys242 in human PIK3CA (157-299) was performed.
Reaction: 3.33 μM or 1 μM of PIK3CA (157-299) protein (produced in-house by Protein Expression Laboratory, FNLCR/Leidos Biomed) in 20 mM HEPES buffer containing 150 mM NaCl, 2 mM MgCl2, pH 7.3 was prepared freshly before assay. Twelve-μL aliquots of protein were dispensed onto low volume 384-well plate, then 470 nL DMSO and 30 nL of tested compounds from 10 mM DMSO stocks were added to appropriate wells using ECHO 555 acoustic liquid handler (Labcyte Inc.). For each reaction/assay, three blanks were prepared by mixing 12 μL of protein solution with 500 nL DMSO. The wells content was carefully mixed by aspiration, and then the plate was sealed by an adhesive cover, centrifuged at 931 g for 1 minute, and kept in the dark at room temperature until 15 min, 30 min, 2 h, or 4 h collections.
Targetpretreatment: Before each assay MALDI target (Bruker MPT 384 ground steel BC) was pre-treated by pipetting on each spot 0.75 μL of saturated sinapinic acid in acetonitrile (ACN).
Sample preparation: At collection time point, 2 μL of reaction mixtures were pipetted out into […] MALDI matrix solution (saturated solution of sinapinic acid in 1:1 ACN:water solution containing 0.15% trifluoroacetic acid (TFA)) deposited on 384 well polypropylene plate. The resulting solution was mixed by aspiration, centrifuged at 931 g for 1 minute, then 1.5 μL aliquots were dispensed on pre-treated MALDI target using Beckman Coulter Biomek FX^P 96/384-Span-8 Laboratory Automation Workstation. Finally, the MALDI target was dried under a mild vacuum to produce spots with a fine crystalline structure.
Measurements: MALDI-TOF measurements were performed on Bruker Daltonics rapifleX Tissuetyper TOF-TOF mass spectrometer using linear mode and mass ranging from 16.0 to 19.6 kDa. Detector gain was set to 0.64×(459 V), sample rate to 5 GS/s, real-time smoothing to medium (175 MHz), laser smart beam pattern was set to “Custom” single smartbeam beam scan with a scan range of 40 μm on both X and Y axis, and the laser frequency was 10000 Hz. Spectra were automatically collected using the custom AutoXecute method. Laser power was auto adjusted using fuzzy control. The peak selection range was set to be between 16.0 and 18.5 kDa. Peak evaluation uses a half-width parameter set to be smaller than 40 Da for processed spectrograms (centroid peak detection; smoothed by SavitzkyGolay algorithm using 7 m/z width and 2 cycles; baseline was subtracted using a median algorithm with flatness 1 and median level 0). Fuzzy control used Proteins/Oligonucleotides protocol with minimum half-width 1/10 times above threshold. Up to 40000 satisfactory shots were collected in 10000 short steps. Dynamic termination was implemented to finish data collection when the peak signal/noise ratio was reaching a value of 1000.
Spectra processing: Spectra were smoothed by SavitzkyGolay algorithm using 7 m/z width and three cycles. Centroid peak detection algorithm was used with signal to noise threshold set to 6, relative intensity threshold 3%, peak width 10 m/z, and median baseline subtraction using flatness of 1 and the median level of 0.1. Peak intensity and area under the peak were evaluated and recorded for all peaks between 16.0 and 19.5 kDa.
Calculation of percent modification: Percent modification was calculated as a ratio of peak height for protein modified by compound to the sum of the peak height of remaining protein plus peak height for protein modified by a compound. If multiple modifications were observed each was calculated as a ratio of peak height for given modification versus the sum of peak heights for all observed protein species.

[2] = system: pAKT in BT474 cells; assay: Cell-based pAKT HTRF assay in BT474 cells; conditions: BT474 cells, 4 hr incubation, read-out: pAKT inhibition IC50 in BT474 cells
Method: On Day 1, cells were seeded into 96-well plates at 2.5×10^4 cells/well in complete growth media (DMEM, 10% FBS). On Day 2, cells were treated with compounds at 0.25% DMSO. The source plate was created with compounds diluted in media at 5-fold the final assay concentration. The compounds are run in a 9-point concentration curve starting at 3 μM, with a 3-fold dilution between concentrations. 20 μL was transferred onto the cell plates (final volume in wells was 100 μL). Plates were harvested after 4 hr incubation by aspirating media and adding kit-supplied 1× supplemented lysis buffer to all wells (75 μL per well). Plates were then placed on a plate shaker and incubated at 850 rpm for an additional 30 min. The antibody mixture solution was prepared by diluting aliquoted d2 and Eu Cryptate antibodies 1:20 in kit supplied detection buffer, then mixed the diluted antibodies solutions (1:1 v:v). 4 μL of this solution was then added to a 384-well detection plate (Perkin Elmer; 6008230). Samples were homogenized by pipetting up and down and then transferred (16 μL of cell lysates) from the 96-well cell culture plate to two wells of the HTRF 384-well detection plate containing the antibody solution. Plates were centrifuged (524 g for 1 min) and allowed to incubate between 4 and 24 h at room temperature. The maximum signal is reached after 4 h incubation time and remains stable over a period of 24 hours. Therefore, readings can be made between 4 and 24 h of incubation. Plates were centrifuged again (524 g for 1 m), and analyzed on the EnVision plate reader using the following settings: Excitation 320 nm, Bandwidth […]; Emission 615 nm, Bandwidth […], Gain 10000, Flashes 100, Lag 60 μs.

[3] = 1 μM protein target, 1:5 protein to compound ratio (compounds 853-1279)
[4] = 3.33 μM protein target, 1:7.5 protein to compound ratio (compounds 1-852)
[5] = Homo sapiens, BT-474, Compounds 10-999

Sequence of Cys242 in human PIK3CA (157-299) (P42336 157-299): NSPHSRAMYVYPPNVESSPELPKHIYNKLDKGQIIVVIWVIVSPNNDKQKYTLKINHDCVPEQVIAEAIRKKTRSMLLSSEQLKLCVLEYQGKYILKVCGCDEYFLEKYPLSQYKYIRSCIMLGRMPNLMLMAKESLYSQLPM

Row | Compound | IC50 ([2]; Compounds 10-999) [µM] | IC50 ([2]; Compounds 1000-1279) [µM] | IC50 [2, 5] [µM] | % of modification [1, 3] | % of modification [1, 4]
1 | C=CC(=O)N1CCc2ccc(-c3nc(-c4ccc5c(c4)CNC5=O)c4ccsc4c3-c3c(F)cc(F)cc3OCCO)cc2C1 (single isomer, unassigned) [Compound 962] | < 0.1 |  |  | A (percent of modification of PIK3CA protein ≥75%) | 
2 | C=CC(=O)N1CCc2ccc(-c3nc(-c4cn(C)cn4)c4ccsc4c3-c3c(F)cc(F)cc3OCCO)cc2C1 (single isomer, unassigned) [Compound 1000] |  | < 0.1 |  | A (percent of modification of PIK3CA protein ≥75%) | 
3 | C=CC(=O)N1CCc2ccc(-c3nc(-c4cn(C)cn4)c4ccsc4c3-c3c(F)cc(F)cc3OCCO)cc2C1 (single isomer, unassigned) [Compound 1001] |  | 0.1 to 1 |  | D (percent of modification <25%) | 
4 | C=CC(=O)N1CCc2nc(-c3nc(-c4ccc5c(c4)CNC5=O)c4ccsc4c3-c3c(F)cc(F)cc3OCCO)sc2C1 (single isomer, unassigned) [Compound 1033] |  | > 1 |  | D (percent of modification <25%) | 
5 | C=CC(=O)N1CCn2nc(-c3nc(-c4ccc5c(cnn5C)c4F)c4ccsc4c3-c3c(F)cc(F)cc3OCCO)cc2[C@H]1C (single isomer, unassigned) [Compound 1145] |  | < 0.1 |  | A (percent of modification of PIK3CA protein ≥75%) | 
6 | C=CC(=O)N1CCn2nc(-c3nc(-c4ccc(CC(=O)N(C)C)cc4)c4ccsc4c3-c3c(F)cc(F)cc3OC)cc2[C@H]1C (single isomer, unassigned) [Compound 1146] |  | < 0.1 |  | A (percent of modification of PIK3CA protein ≥75%) | 
7 | C=CC(=O)N1CCn2nc(-c3nc(-c4cnc5c(c4)CN(C)CC5)c4ccsc4c3-c3c(F)cc(F)cc3OC)cc2[C@H]1C (single isomer, unassigned) [Compound 1147] |  | < 0.1 |  | A (percent of modification of PIK3CA protein ≥75%) | 
8 | C=CC(=O)N1CCn2nc(-c3nc(-c4cnc5c(c4)CN(C(C)C)CC5)c4ccsc4c3-c3c(F)cc(F)cc3OC)cc2[C@H]1C (single isomer, unassigned) [Compound 1148] |  | < 0.1 |  | A (percent of modification of PIK3CA protein ≥75%) | 
9 | C=CC(=O)N1CCn2nc(-c3nc(-c4ccc([C@H](NC)C(F)(F)F)cc4)c4ccsc4c3-c3c(F)cc(F)cc3OCCOC)cc2[C@H]1C (single isomer, unassigned) [Compound 1149] |  | < 0.1 |  | A (percent of modification of PIK3CA protein ≥75%) | 
10 | C=CC(=O)N1CCn2nc(-c3nc(-c4ccc([C@H](N(C)C)C(F)(F)F)cc4)c4ccsc4c3-c3c(F)cc(F)cc3OCCOC)cc2[C@H]1C (single isomer, unassigned) [Compound 1150] |  | 0.1 to 1 |  | A (percent of modification of PIK3CA protein ≥75%) | 
11 | C=CC(=O)N1CCn2nc(-c3nc(-c4ccc(C5(C(=O)NC)CC5)cc4)c4ccsc4c3-c3c(F)cc(F)cc3OC)cc2[C@H]1C (single isomer, unassigned) [Compound 1151] |  | 0.1 to 1 |  | A (percent of modification of PIK3CA protein ≥75%) | 
12 | C=CC(=O)N1CCc2ncc(-c3nc(-c4ccc5c(c4)CCNC5)c4ccsc4c3-c3ccc(F)cc3OCCOC)cc2C1 [Compound 62, 1-[3-[7-[4-fluoro-2-(2-methoxyethoxy)phenyl]-4-(1,2,3,4-tetrahydroisoquinolin-6-yl)thieno[3,2-c]pyridin-6-yl]-7,8-dihydro-5H-1,6-naphthyridin-6-yl]prop-2-en-1-one] |  |  | < 0.1 |  | A (percent of modification of PIK3CA protein ≥75%)
13 | C=CC(=O)NCc1cc(-c2nc(-c3ccc4c(c3)CCNC4)c3ccsc3c2-c2ccc(F)cc2OCCOC)ccc1OC [Compound 74] | 1 to 3 |  |  |  | D (percent of modification <25%)

Continued, in another order:

Row | IC50 ([2]; Compounds 10-999) [µM] | IC50 ([2]; Compounds 1000-1279) [µM] | IC50 [2, 5] [µM] | Compound | % of modification [1, 3] | % of modification [1, 4]
14 | < 0.1 |  |  | C=CC(=O)N1CCC(n2cc(-c3nc(-c4ccc5c(c4)CS(=O)(=O)C5)c4ccsc4c3-c3ccc(F)cc3OCCOC)cn2)CC1 [Compound 61] |  | A (percent of modification of PIK3CA protein ≥75%)
15 | < 0.1 |  |  | C=CC(=O)N1CC[C@H](n2cc(-c3nc(-c4ccc5c(c4)CCC(O)C5)c4ccsc4c3-c3ccc(F)cc3OCCOC)cn2)C1 (some centres unmarked) [Compound 64] |  | A (percent of modification of PIK3CA protein ≥75%)
16 | < 0.1 |  |  | C=CC(=O)N1CC[C@H](n2cc(-c3nc(-c4ccc5c(c4)CCN(C)C5)c4ccsc4c3-c3ccc(F)cc3OCCOC)cn2)C1 [Compound 67] |  | A (percent of modification of PIK3CA protein ≥75%)
17 | 0.1 to 1 |  |  | C=CC(=O)N1CCC(n2cc(-c3nc(-c4cnn5c4NCCC5)c4ccsc4c3-c3ccc(F)cc3OCCOC)cn2)CC1 [Compound 68] |  | A (percent of modification of PIK3CA protein ≥75%)
18 | 1 to 3 |  |  | C=CC(=O)N1CCC(n2cc(-c3nc(-c4ccc5c(c4)CNC(=O)C5)c4ccsc4c3-c3ccc(F)cc3)cn2)CC1 [Compound 69] |  | A (percent of modification of PIK3CA protein ≥75%)
19 |  |  | 0.1 to 1 | C=CC(=O)N1CCC(c2cc(-c3nc(-c4ccc5c(c4)CCNC5)c4ccsc4c3-c3ccc(F)cc3OCCOC)c[nH]c2=O)C1 (centres unmarked) [Compound 70, 5-[7-[4-fluoro-2-(2-methoxyethoxy)phenyl]-4-(1,2,3,4-tetrahydroisoquinolin-6-yl)thieno[3,2-c]pyridin-6-yl]-3-(1-prop-2-enoylpyrrolidin-3-yl)-1H-pyridin-2-one] |  | A (percent of modification of PIK3CA protein ≥75%)
20 | 0.1 to 1 |  |  | C=CC(=O)N1CCC(n2cc(-c3nc(-c4cnn5c4CNCC5)c4ccsc4c3-c3ccc(F)cc3OCCOC)cn2)CC1 [Compound 71] |  | A (percent of modification of PIK3CA protein ≥75%)
21 | < 0.1 |  |  | C=CC(=O)N1CC(n2cc(-c3nc(-c4ccc5c(c4)CNC(=O)C5)c4ccsc4c3-c3ccc(F)cc3OCCOC)cn2)C1 [Compound 72] |  | A (percent of modification of PIK3CA protein ≥75%)
22 | 0.1 to 1 |  |  | C=CC(=O)N1CCC(n2cc(-c3nc(-c4cn(C)cn4)c4ccsc4c3-c3ccc(F)cc3OCCOC)cn2)CC1 [Compound 73] |  | A (percent of modification of PIK3CA protein ≥75%)
